Results from PubChem BioAssay AID1745844 (Carcinogenic Potency Database (CPDB), 2022).
Calls of active or inactive are those of the source. The rule behind the calls is not given here.

System: rodent lifetime carcinogenesis bioassay, tumor incidence TD50
Experiment: carcinogenic potency in animals, long-term in vivo studies, CPDB compilation (AID 1745844)

Question: How did the TD50 (mouse, strain B6C3F1, females, by gavage, site: all sites, lesion: leukemia + lymphoma, dosed 104 weeks, study length 104 weeks) turn out when `C=C(Cl)Cl` was run?
Answer: The TD50 was 3.9 mg/kg/day (inactive).

Question: And the TD50 (mouse, strain B6C3F1, females, by gavage, site: all sites, lesion: lymphoma, dosed 104 weeks, study length 104 weeks)?
Answer: The TD50 was 4.02 mg/kg/day.

Question: And the TD50 (mouse, strain B6C3F1, females, by gavage, site: any site (literature study), lesion: several types, types named in the paper, dosed 104 weeks, study length 104 weeks)?
Answer: Its TD50 is 2.09 mg/kg/day.

Question: What about the TD50 (mouse, strain B6C3F1, females, by gavage, site: lung, lesion: alveolar/bronchiolar adenoma + alveolar/bronchiolar carcinoma, dosed 104 weeks, study length 104 weeks) of the same compound?
Answer: Its TD50 is 66.7 mg/kg/day.

Question: What about the TD50 (mouse, strain B6C3F1, males, by gavage, site: any site (literature study), lesion: several types, types named in the paper, dosed 104 weeks, study length 104 weeks) of the same compound?
Answer: The TD50 was 34.8 mg/kg/day (inactive).

Question: And the TD50 (mouse, strain B6C3F1, males, by gavage, site: liver, lesion: hepatocellular adenoma + hepatocellular carcinoma + neoplastic nodule, dosed 104 weeks, study length 104 weeks)?
Answer: The TD50 was 133 mg/kg/day.

Question: What about the TD50 (mouse, strain B6C3F1, males, by gavage, site: lung, lesion: alveolar/bronchiolar adenoma + alveolar/bronchiolar carcinoma, dosed 104 weeks, study length 104 weeks) of the same compound?
Answer: Its TD50 is 60.4 mg/kg/day.

Question: What about the carcinogen call (mouse, strain Charles River CD1, females, inhaled, site: liver, lesion: hemangiosarcoma, dosed 26 weeks, study length 78 weeks) of the same compound?
Answer: The carcinogen call was “negative (inactive)”.

Question: What about the TD50 (mouse, strain Charles River CD1, females, inhaled, site: liver, lesion: hemangiosarcoma, dosed 52 weeks, study length 52 weeks) of the same compound?
Answer: Its TD50 is 170 mg/kg/day.

Question: What about the carcinogen call (mouse, strain Charles River CD1, females, inhaled, site: liver, lesion: hepatocellular tumor, dosed 26 weeks, study length 78 weeks) of the same compound?
Answer: The carcinogen call was “negative (inactive)”.

Question: And the TD50 (mouse, strain Charles River CD1, females, inhaled, site: liver, lesion: hepatoma, dosed 52 weeks, study length 52 weeks)?
Answer: Its TD50 is 170 mg/kg/day.

Question: What about the carcinogen call (mouse, strain Charles River CD1, females, inhaled, site: lung, lesion: alveolar/bronchiolar tumor, dosed 26 weeks, study length 78 weeks) of the same compound?
Answer: The carcinogen call was “negative (inactive)”.

Question: What about the carcinogen call (mouse, strain Charles River CD1, males, inhaled, site: liver, lesion: hepatocellular tumor, dosed 26 weeks, study length 78 weeks) of the same compound?
Answer: Its carcinogen call is “negative (inactive)”.

Question: What about the carcinogen call (mouse, strain Charles River CD1, males, inhaled, site: lung, lesion: alveolar/bronchiolar tumor, dosed 26 weeks, study length 78 weeks) of the same compound?
Answer: Its carcinogen call is “negative (inactive)”.

Question: And the TD50 (mouse, strain Swiss, females, inhaled, site: any site (literature study), lesion: malignant tumor, dosed 52 weeks, study length 126 weeks)?
Answer: Its TD50 is 86.1 mg/kg/day.

Question: And the TD50 (mouse, strain Swiss, females, inhaled, site: any site (literature study), lesion: several types, types named in the paper, dosed 52 weeks, study length 126 weeks)?
Answer: The TD50 was 30.9 mg/kg/day.

Question: What about the TD50 (mouse, strain Swiss, females, inhaled, site: liver, lesion: hepatoma, dosed 52 weeks, study length 126 weeks) of the same compound?
Answer: Its TD50 is 858 mg/kg/day.

Question: And the TD50 (mouse, strain Swiss, females, inhaled, site: lung, lesion: several types, types named in the paper, dosed 52 weeks, study length 126 weeks)?
Answer: The TD50 was 124 mg/kg/day.

Question: And the TD50 (mouse, strain Swiss, females, inhaled, site: mammary gland, lesion: several types, types named in the paper, dosed 52 weeks, study length 126 weeks)?
Answer: Its TD50 is 80.9 mg/kg/day.

Question: And the TD50 (mouse, strain Swiss, males, inhaled, site: any site (literature study), lesion: malignant tumor, dosed 52 weeks, study length 126 weeks)?
Answer: Its TD50 is 50.3 mg/kg/day.

Question: And the TD50 (mouse, strain Swiss, males, inhaled, site: any site (literature study), lesion: several types, types named in the paper, dosed 52 weeks, study length 126 weeks)?
Answer: The TD50 was 17.9 mg/kg/day.

Question: And the TD50 (mouse, strain Swiss, males, inhaled, site: kidney, lesion: adenocarcinoma, dosed 52 weeks, study length 126 weeks)?
Answer: Its TD50 is 22 mg/kg/day.

Question: And the TD50 (mouse, strain Swiss, males, inhaled, site: liver, lesion: angiosarcoma, dosed 52 weeks, study length 126 weeks)?
Answer: Its TD50 is 566 mg/kg/day.

Question: What about the TD50 (mouse, strain Swiss, males, inhaled, site: lung, lesion: several types, types named in the paper, dosed 52 weeks, study length 126 weeks) of the same compound?
Answer: The TD50 was 59.9 mg/kg/day.

Question: What about the carcinogen call (rat, strain Charles River CD (Sprague-Dawley), females, inhaled, site: liver, lesion: several types, types named in the paper, dosed 26 weeks, study length 78 weeks) of the same compound?
Answer: The carcinogen call was “negative (inactive)”.

Question: And the carcinogen call (rat, strain Charles River CD (Sprague-Dawley), females, inhaled, site: liver, lesion: several types, types named in the paper, dosed 43 weeks, study length 95 weeks)?
Answer: Its carcinogen call is “negative (inactive)”.

Question: And the carcinogen call (rat, strain Charles River CD (Sprague-Dawley), males, inhaled, site: liver, lesion: several types, types named in the paper, dosed 26 weeks, study length 78 weeks)?
Answer: The carcinogen call was “negative (inactive)”.

Question: And the carcinogen call (rat, strain Charles River CD (Sprague-Dawley), males, inhaled, site: liver, lesion: several types, types named in the paper, dosed 43 weeks, study length 95 weeks)?
Answer: The carcinogen call was “negative (inactive)”.

Question: What about the carcinogen call (rat, strain Fischer 344, females, by gavage, site: any site (literature study), lesion: several types, types named in the paper, dosed 104 weeks, study length 104 weeks) of the same compound?
Answer: Its carcinogen call is “negative (inactive)”.

Question: And the carcinogen call (rat, strain Fischer 344, males, by gavage, site: any site (literature study), lesion: several types, types named in the paper, dosed 104 weeks, study length 104 weeks)?
Answer: The carcinogen call was “negative (inactive)”.

Question: What about the TD50 (rat, strain Sprague-Dawley Spartan, females, in drinking water, site: liver, lesion: hepatocellular carcinoma, dosed 104 weeks, study length 104 weeks) of the same compound?
Answer: Its TD50 is 654 mg/kg/day (inactive).

Question: What about the TD50 (rat, strain Sprague-Dawley Spartan, females, in drinking water, site: liver, lesion: neoplastic nodule, dosed 104 weeks, study length 104 weeks) of the same compound?
Answer: Its TD50 is 414 mg/kg/day (inactive).

Question: And the TD50 (rat, strain Sprague-Dawley Spartan, females, in drinking water, site: mammary gland, lesion: fibroadenoma, dosed 104 weeks, study length 104 weeks)?
Answer: The TD50 was 679 mg/kg/day (inactive).

Question: And the carcinogen call (rat, strain Sprague-Dawley Spartan, females, in drinking water, site: pituitary gland, lesion: adenoma, dosed 104 weeks, study length 104 weeks)?
Answer: Its carcinogen call is “negative (inactive)”.

Question: And the carcinogen call (rat, strain Sprague-Dawley Spartan, females, inhaled, site: liver, lesion: cholangioma, dosed 78 weeks, study length 104 weeks)?
Answer: The carcinogen call was “negative (inactive)”.

Question: What about the TD50 (rat, strain Sprague-Dawley Spartan, females, inhaled, site: mammary gland, lesion: adenocarcinoma, dosed 78 weeks, study length 104 weeks) of the same compound?
Answer: The TD50 was 49.8 mg/kg/day (inactive).

Question: And the TD50 (rat, strain Sprague-Dawley Spartan, females, inhaled, site: mammary gland, lesion: fibroadenoma, dosed 78 weeks, study length 104 weeks)?
Answer: The TD50 was 16 mg/kg/day (inactive).

Question: And the TD50 (rat, strain Sprague-Dawley Spartan, males, in drinking water, site: liver, lesion: hepatocellular carcinoma, dosed 104 weeks, study length 104 weeks)?
Answer: The TD50 was 22900 mg/kg/day (inactive).

Question: And the carcinogen call (rat, strain Sprague-Dawley Spartan, males, in drinking water, site: liver, lesion: neoplastic nodule, dosed 104 weeks, study length 104 weeks)?
Answer: The carcinogen call was “negative (inactive)”.

Question: What about the carcinogen call (rat, strain Sprague-Dawley Spartan, males, inhaled, site: liver, lesion: sarcoma, dosed 78 weeks, study length 104 weeks) of the same compound?
Answer: The carcinogen call was “negative (inactive)”.

Question: And the TD50 (rat, strain Sprague-Dawley, females, by gavage, site: liver, lesion: angiosarcoma, dosed 52 weeks, study length 136 weeks)?
Answer: Its TD50 is 0.501 mg/kg/day.

Question: What about the TD50 (rat, strain Sprague-Dawley, females, inhaled, site: any site (literature study), lesion: several types, types named in the paper, dosed 104 weeks, study length 150 weeks) of the same compound?
Answer: Its TD50 is 119 mg/kg/day.

Question: What about the TD50 (rat, strain Sprague-Dawley, females, inhaled, site: liver, lesion: several types, types named in the paper, dosed 104 weeks, study length 150 weeks) of the same compound?
Answer: Its TD50 is 847 mg/kg/day.

Question: And the TD50 (rat, strain Sprague-Dawley, males, by gavage, site: any site (literature study), lesion: several types, types named in the paper, dosed 52 weeks, study length 136 weeks)?
Answer: Its TD50 is 5.32 mg/kg/day.

Question: `Cc1cc2c(nc1N)[nH]c1ccccc12` was tested. Which TD50 (mouse, strain CDF1, females, in feed, site: blood vessels, lesion: hemangioendothelial sarcoma, dosed 84 weeks, study length 84 weeks) did it give?
Answer: Its TD50 is 38.6 mg/kg/day.

Question: What about the TD50 (mouse, strain CDF1, females, in feed, site: liver, lesion: hepatocellular adenoma, dosed 84 weeks, study length 84 weeks) of the same compound?
Answer: The TD50 was 118 mg/kg/day.

Question: What about the TD50 (mouse, strain CDF1, females, in feed, site: liver, lesion: hepatocellular carcinoma, dosed 84 weeks, study length 84 weeks) of the same compound?
Answer: Its TD50 is 98.9 mg/kg/day.

Question: And the TD50 (mouse, strain CDF1, females, in feed, site: liver, lesion: several types, types named in the paper, dosed 84 weeks, study length 84 weeks)?
Answer: Its TD50 is 38.6 mg/kg/day.

Question: What about the TD50 (mouse, strain CDF1, females, in feed, site: lung, lesion: adenoma, dosed 84 weeks, study length 84 weeks) of the same compound?
Answer: Its TD50 is 1840 mg/kg/day.

Question: And the TD50 (mouse, strain CDF1, males, in feed, site: blood vessels, lesion: hemangioendothelial sarcoma, dosed 73 weeks, study length 73 weeks)?
Answer: Its TD50 is 15.6 mg/kg/day.

Question: And the TD50 (mouse, strain CDF1, males, in feed, site: liver, lesion: hepatocellular adenoma, dosed 73 weeks, study length 73 weeks)?
Answer: Its TD50 is 90.9 mg/kg/day.

Question: What about the TD50 (mouse, strain CDF1, males, in feed, site: liver, lesion: hepatocellular carcinoma, dosed 73 weeks, study length 73 weeks) of the same compound?
Answer: Its TD50 is 127 mg/kg/day.

Question: And the TD50 (mouse, strain CDF1, males, in feed, site: liver, lesion: several types, types named in the paper, dosed 73 weeks, study length 73 weeks)?
Answer: Its TD50 is 43.5 mg/kg/day.

Question: What about the TD50 (mouse, strain CDF1, males, in feed, site: lung, lesion: adenoma, dosed 73 weeks, study length 73 weeks) of the same compound?
Answer: Its TD50 is 1180 mg/kg/day.

Question: And the TD50 (rat, strain F344/DuCrj, males, in feed, site: liver, lesion: hepatocellular carcinoma, dosed 100 weeks, study length 100 weeks)?
Answer: The TD50 was 11.7 mg/kg/day.

Question: What about the TD50 (rat, strain F344/DuCrj, males, in feed, site: pancreas, lesion: acinar-cell adenoma, dosed 100 weeks, study length 100 weeks) of the same compound?
Answer: The TD50 was 8.7 mg/kg/day.

Question: What about the TD50 (rat, strain F344/DuCrj, males, in feed, site: pancreatic islets, lesion: islet-cell adenoma, dosed 100 weeks, study length 100 weeks) of the same compound?
Answer: The TD50 was 48.1 mg/kg/day.

Question: What about the TD50 (rat, strain F344/DuCrj, males, in feed, site: salivary gland, lesion: fibrosarcoma, dosed 100 weeks, study length 100 weeks) of the same compound?
Answer: Its TD50 is 73.5 mg/kg/day.

Question: What about the TD50 (rat, strain F344/DuCrj, males, in feed, site: subcutaneous tissue, lesion: fibroma, dosed 100 weeks, study length 100 weeks) of the same compound?
Answer: Its TD50 is 6.7 mg/kg/day.

Question: What about the TD50 (rat, strain F344/DuCrj, males, in feed, site: urinary bladder, lesion: transitional-cell carcinoma, dosed 100 weeks, study length 100 weeks) of the same compound?
Answer: The TD50 was 28.6 mg/kg/day.
